Measurements from paper PMC10683025, “Discovery of a Hydroxylamine-Based Brain-Penetrant EGFR Inhibitor for Metastatic Non-Small-Cell Lung Cancer” (Journal of Medicinal Chemistry, 2023).
Read-outs that look alike come from different tables or passages of the source.

Key:
[1] = Metabolic stability in liver microsomes; format: in vitro ADME, Sprague-Dawley rat; details: for half-life at 1 h, 1 µM / microsomal CLint at 1 h, 1 µM: Sprague-Dawley, rat, liver microsomes; for half-life at 1 h, 1 µM: read-out: LM t1/2; for microsomal CLint at 1 h, 1 µM: read-out: LMClint; for Remaining Percentage: rat LM
Protocol: (§2) Microsome stability was assessed in duplicate (n = 2) in the presence and absence of nicotinamide adenine dinucleotide phosphate (NADPH) with liver microsomes (0.5 mg/mL) from human (BD Gentest) and Sprague-Dawley rats (BD Gentest). Compounds were incubated in liver microsomes at 1 μM and samples (30 μL) were taken at 0.5, 15, 30, 45, and 60 min time points for analysis by LC-MS/MS. Hepatocyte stability was assessed in duplicate (n = 2) at a working cell density of 0.5 × 10^6 cells/mL with hepatocytes from human (BiolVT), Sprague-Dawley rat (BiolVT), cynomolgus monkey (RILD) or beagle dog (BiolVT). […] The in vitro half-life and intrinsic clearances were determined as previously described.[76]
(§3) In vitro half-life (in vitro t1/2) was determined from the slope value in [drawing 1] where k was determined by linear regression of the natural logarithm of the remaining percentage of the parent drug vs the incubation time curve.

Caco-2 permeability = format: in vitro ADME; details: human; for recovery at 2 h, 5 μM: Caco-2, Caco-2
Protocol: A 96-well HTS Transwell plate (Corning) was used for Caco-2 and MDCKII-MDR1 cell seeding. […] Plates were incubated at 37 °C for 2 h, and samples (50 μL) were taken at the beginning and end of the incubation in both the donor and acceptor wells with the assay run in duplicate (n = 2). Samples were analyzed by LC-MS/MS.
The efflux ratio was determined by using the following equation: [drawing 4] where Papp (B–A) indicates the apparent permeability in the basolateral to apical direction and Papp (A–B) indicates the apparent permeability in the apical to basolateral direction.

[2] = Metabolic stability in liver microsomes; format: in vitro ADME, human; details: for Remaining Percentage: human LM; for half-life at 1 h, 1 µM / microsomal CLint at 1 h, 1 µM: human, liver microsomes; for half-life at 1 h, 1 µM: read-out: LM t1/2; for microsomal CLint at 1 h, 1 µM: read-out: LMClint
Protocol: as §2, §3

[3] = test system: NCI-H3255 (EGFR mutation = L858R); assay: CellTiter-Glo cell viability assay; format: cell-based, human; details: NCI-H3255; for IC50: Homo sapiens, 72 h, unadjusted for FBS
Protocol: (§4) The NCI-H3255 cell line was obtained from CoBioer. […] NCI-H3255 cells were cultured in BEGM (Lonza) with 10% FBS. […] All cells were cultured in a humidified incubator with 5% CO2 at 37 °C.
(§5) Viability assays using A431, HCC827, NCI-H1975, NCI-H3255, Ba/F3 EGFR-del E746_A750/C797S, Ba/F3 EGFR-L858R/C797S, AU565, SK-BR-3, and ZR-75-30 cells were performed at Crown BioScience.

Pharmacokinetic study = format: in vivo, Sprague-Dawley rats
Protocol: Animal experiments were performed at Pharmaron, Inc. and animal use was approved by Pharmaron’s Institutional Animal Care and Use Committee (IACUC) in Pharmaron (Pharmaron IACUC, Protocol #PK-M-07182022, #PK-R-06012022, and #ON-CELL-XEN-06012022) following the guidance of AAALAC. Six- to eight-week-old male Sprague-Dawley rats (approximately 200–300 g) obtained from Si Bei Fu Laboratory Animal Technology Co., six- to eight-week-old male CD1 mice (approximately 20–30 g) obtained from Si Bei Fu Laboratory Animal Technology Co., and six- to eight-week-old female BALB/c nude mice (approximately 20–30 g) obtained from Si Bei Fu Laboratory Animal Technology Co., were used in the pharmacokinetic studies. Six- to eight-week-old female BALB/c nude mice (approximately 18–22 g) obtained from Beijing Anikeeper Biotech Co., Ltd. were used in the intracranial PDX study. Animals were housed at 20–25 °C with humidity ranging from 40 to 70% relative humidity, were exposed to 12 h light and dark cycles, and were supplied with food and water ab libitum.
Approximately 0.03 mL of blood was collected from the dorsal metatarsal vein (in the case of CD1 mice), 0.03 mL of blood from the orbit vein (in the case of BALB/c nude mice), or 0.2 mL of blood from the jugular vein (in the case of Sprague-Dawley rats) at each time point. Blood at each sampling point was transferred into a plastic micro centrifuge tube containing K2-EDTA, and collection tubes with blood samples and anticoagulant were inverted several times for proper mixing of the tube contents and placed on ice prior to centrifugation for plasma. Blood samples were centrifuged at 4 °C, 4000g for 5 min to obtain plasma. Samples were stored in a freezer at −75 °C prior to analysis. Concentrations of test articles in the plasma samples were determined using LC-MS/MS and WinNonlin 8.3 (Phoenix) was used for pharmacokinetic calculations. The values obtained were plotted on GraphPad Prism software and are presented as mean ± SD.

[4] = Brain tissue binding by equilibrium dialysis; format: in vitro ADME; details: rat; for recovery at 6 h, 5 μM: Sprague-Dawley (SD); for fraction unbound at 6 h, 5 μM / remaining at 6 h, 5 μM: Sprague-Dawley
Protocol: (§1) Plasma protein binding and brain tissue binding were determined by Pharmaron, Inc. using the equilibrium dialysis method. […] Following incubation, the samples were analyzed by LC-MS/MS and the concentrations of the compounds were determined in the buffer and plasma solution chambers.

Plasma stability = format: in vitro ADME, Sprague-Dawley rat; details: for Remaining Percentages / t1/2: rat plasma; for t1/2: ∞ = no degradation
Summary of the method: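 Compound at 5 μM incubated in human and Sprague-Dawley rat plasma, duplicates; samples at 0, 15, 30, 60 and 120 min analysed by LC-MS/MS. Percent remaining at each time from compound/control peak area ratio relative to the 0 min ratio.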

[5] = test system: HCC827 (EGFR mutation = exon19del); assay: CellTiter-Glo cell viability assay; format: cell-based, human; details: Homo sapiens, HCC827; 72 h, unadjusted for FBS
Protocol: as §4, §5

[6] = Plasma protein binding by equilibrium dialysis; format: in vitro ADME
Protocol: as §1

EGFRwt = target: T1, EGFRwt (Homo sapiens, UniProt P00533); assay: KINOMEScan KdELECT Kd determination; format: binding; details: wt; read-out: EGFR Kd
T1 construct: purchased Eurofins DiscoverX (contract assay)
Protocol: In vitro kinase activity (inhibitor binding constants (Kd) and biochemical inhibition (IC50’s)) were assessed by Eurofins DiscoverX (Kd determinations) and Eurofins Cerep (biochemical IC50 determinations).

hERG = target: T2, hERG (Homo sapiens, UniProt Q12809); assay: hERG manual patch clamp in HEK293; format: cell-based; details: for IC50: human, HEK293 cells stably transfected with hERG, HEK 293 (+hERG), manual patch clamp
T2 construct: host or cells: HEK293

[7] = Metabolic stability in hepatocytes; format: in vitro ADME, Sprague-Dawley rat; details: for hepatocyte CLint at 2 h, 1 µM / half-life at 2 h, 1 µM: Sprague-Dawley, rat, hepatocytes; for half-life at 2 h, 1 µM: read-out: HEP t1/2; for Remaining Percentages: rat hepatocytes
Protocol: as §2, §3

[8] = male, Sprague-Dawley, plasma, Rat 2 mg/kg (IV)
[9] = male, Sprague-Dawley, plasma, Rat 20 mg/kg (PO)
[10] = male, Sprague-Dawley, plasma, rat, 1 mg/kg IV and 5 mg/kg PO dosing (route of value not stated)
[11] = brain homogenate, read-out: fu,brain% / %Unboundbrain
[12] = rat brain homogenate, read-out: %Boundbrain (converted)
[13] = Sprague-Dawley, rat, plasma, 5 μM, read-out: fu,plasma% / %Unbound
[14] = Sprague-Dawley, rat, rat plasma
[15] = Sprague-Dawley, rat, rat plasma, read-out: %Bound (converted)
[16] = human, human plasma, read-out: fu,plasma% / %Unbound (converted)
[17] = plasma, human, 5 μM, read-out: fu,plasma% / %Unbound (converted)

T2 sequence (Q12809 whole entry): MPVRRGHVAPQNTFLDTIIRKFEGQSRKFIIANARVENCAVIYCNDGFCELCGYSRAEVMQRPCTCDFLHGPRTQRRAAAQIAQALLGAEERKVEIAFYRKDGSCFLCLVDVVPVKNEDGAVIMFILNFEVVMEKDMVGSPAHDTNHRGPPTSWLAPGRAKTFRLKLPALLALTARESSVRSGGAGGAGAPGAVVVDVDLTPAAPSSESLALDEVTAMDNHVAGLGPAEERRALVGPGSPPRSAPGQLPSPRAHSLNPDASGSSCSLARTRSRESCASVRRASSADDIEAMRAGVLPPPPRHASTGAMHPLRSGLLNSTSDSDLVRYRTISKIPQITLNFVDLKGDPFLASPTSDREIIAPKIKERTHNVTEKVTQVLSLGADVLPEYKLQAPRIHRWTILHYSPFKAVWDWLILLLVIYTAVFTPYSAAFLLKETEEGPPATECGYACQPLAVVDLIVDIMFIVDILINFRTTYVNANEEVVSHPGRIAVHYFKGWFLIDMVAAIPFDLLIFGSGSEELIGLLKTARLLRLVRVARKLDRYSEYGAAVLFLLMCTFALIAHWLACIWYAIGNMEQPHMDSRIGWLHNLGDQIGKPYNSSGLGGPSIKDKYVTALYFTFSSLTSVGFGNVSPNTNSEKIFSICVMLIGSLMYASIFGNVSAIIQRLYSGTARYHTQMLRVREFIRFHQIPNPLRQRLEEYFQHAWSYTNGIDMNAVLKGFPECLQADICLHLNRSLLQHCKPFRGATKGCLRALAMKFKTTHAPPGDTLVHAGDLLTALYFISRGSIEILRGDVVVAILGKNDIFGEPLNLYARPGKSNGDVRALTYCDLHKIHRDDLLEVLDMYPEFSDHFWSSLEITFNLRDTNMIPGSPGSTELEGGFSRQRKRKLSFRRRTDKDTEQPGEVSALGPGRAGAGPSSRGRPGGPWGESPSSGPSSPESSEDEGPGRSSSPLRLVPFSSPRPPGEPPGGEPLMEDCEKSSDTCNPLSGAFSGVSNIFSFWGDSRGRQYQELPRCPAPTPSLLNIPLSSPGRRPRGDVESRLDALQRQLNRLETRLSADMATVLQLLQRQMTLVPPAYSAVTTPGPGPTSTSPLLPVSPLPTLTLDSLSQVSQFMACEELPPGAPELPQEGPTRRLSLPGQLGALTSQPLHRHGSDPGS
T1 sequence (P00533 25-1210): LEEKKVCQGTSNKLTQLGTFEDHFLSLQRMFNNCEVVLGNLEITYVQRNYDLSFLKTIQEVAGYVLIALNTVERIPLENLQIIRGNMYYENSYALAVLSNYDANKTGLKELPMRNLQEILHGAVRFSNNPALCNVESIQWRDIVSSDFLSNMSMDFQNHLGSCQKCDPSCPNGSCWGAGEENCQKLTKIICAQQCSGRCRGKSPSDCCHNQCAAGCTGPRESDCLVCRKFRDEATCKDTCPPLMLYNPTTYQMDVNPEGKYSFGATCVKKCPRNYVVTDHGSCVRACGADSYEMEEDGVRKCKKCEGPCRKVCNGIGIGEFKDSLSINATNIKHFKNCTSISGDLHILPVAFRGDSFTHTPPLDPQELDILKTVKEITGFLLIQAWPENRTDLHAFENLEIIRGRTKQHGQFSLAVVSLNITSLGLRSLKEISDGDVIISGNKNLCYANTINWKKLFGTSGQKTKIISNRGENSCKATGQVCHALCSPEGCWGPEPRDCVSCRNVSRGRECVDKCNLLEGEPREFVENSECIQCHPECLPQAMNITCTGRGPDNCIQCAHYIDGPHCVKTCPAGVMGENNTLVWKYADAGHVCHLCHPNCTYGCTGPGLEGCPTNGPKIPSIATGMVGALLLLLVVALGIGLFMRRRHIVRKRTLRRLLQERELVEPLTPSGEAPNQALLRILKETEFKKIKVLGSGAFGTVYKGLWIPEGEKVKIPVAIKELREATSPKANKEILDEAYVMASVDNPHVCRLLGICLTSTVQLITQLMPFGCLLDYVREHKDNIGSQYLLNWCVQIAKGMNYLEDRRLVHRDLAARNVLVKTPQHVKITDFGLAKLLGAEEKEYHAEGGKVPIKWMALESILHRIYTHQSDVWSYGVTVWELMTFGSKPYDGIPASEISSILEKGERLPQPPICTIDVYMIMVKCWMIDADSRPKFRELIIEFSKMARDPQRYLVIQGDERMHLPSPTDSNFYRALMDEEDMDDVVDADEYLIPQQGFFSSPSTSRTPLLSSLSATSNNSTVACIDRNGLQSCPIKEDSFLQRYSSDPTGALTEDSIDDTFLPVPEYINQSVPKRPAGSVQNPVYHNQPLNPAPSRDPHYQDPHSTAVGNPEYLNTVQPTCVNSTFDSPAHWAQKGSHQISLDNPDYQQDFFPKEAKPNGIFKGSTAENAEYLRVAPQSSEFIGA

## COc1cc2ncnc(Nc3cccc(Cl)c3F)c2cc1OCCON1CCN(C)CC1 [Compound 9, N-(3-Chloro-2-fluorophenyl)-7-methoxy-6-(2-((4-methylpiperazin-1-yl)oxy)ethoxy)quinazolin-4-amine]
[1]
  half-life at 1 h, 1 µM: 9.5 min
  microsomal CLint at 1 h, 1 µM: 146 µL/min/mg
[1]; +Cofactors, 15 min
  Remaining Percentage: 34.07%
[1]; +Cofactors, 30 min
  Remaining Percentage: 11.66%
[1]; +Cofactors, 45 min
  Remaining Percentage: 6.01%
[1]; +Cofactors, 60 min
  Remaining Percentage: 2.50%
[1]; -Cofactors, 60 min
  Remaining Percentage: 113.38%
Caco-2 permeability; Caco-2
  efflux ratio at 2 h, 5 µM: 1.3
  efflux ratio at 2 h, 5 μM: 1.32
  Papp A→B at 2 h, 5 µM: 6.5 ×10⁻⁶ cm/s
  Papp A→B at 2 h, 5 μM: 6.52 ×10⁻⁶ cm/s
  Papp B→A at 2 h, 5 µM: 8.6 ×10⁻⁶ cm/s
  Papp B→A at 2 h, 5 μM: 8.61 ×10⁻⁶ cm/s
Caco-2 permeability; read-out: Recovery% (AP-BL)
  recovery at 2 h, 5 μM: 53.9%
Caco-2 permeability; read-out: Recovery% (BL-AP)
  recovery at 2 h, 5 μM: 73.5%
[2]; +Cofactors, 15 min
  Remaining Percentage: 69.65%
[2]; +Cofactors, 30 min
  Remaining Percentage: 46.26%
[2]; +Cofactors, 45 min
  Remaining Percentage: 31.49%
[2]; +Cofactors, 60 min
  Remaining Percentage: 26.65%
[2]; -Cofactors, 60 min
  Remaining Percentage: 109.86%
[2]
  half-life at 1 h, 1 µM: 30 min
  microsomal CLint at 1 h, 1 µM: 46 µL/min/mg
[3]
  IC50: 7.2 nM
  improvement of IC50 over 6: roughly 12 fold
Pharmacokinetic study; Sprague-Dawley rats at the tested PK doses
  adverse events or signs of toxicity: No adverse events or signs of toxicity were observed
Pharmacokinetic study; [8]
  clearance at 24 h: 59.6 ± 22.2 mL/min/kg
  half-life at 24 h: 144 ± 64.2 min
Pharmacokinetic study; male, Sprague-Dawley, plasma, Rat 2 mg/kg (IV), read-out: Vss
  Vd at 24 h: 6.67 L/kg
Pharmacokinetic study; [9]
  Cmax at 24 h: 653 ± 106 nM
  Tmax at 24 h: 2 h
  bioavailability at 24 h: 64%
  half-life at 24 h: 142 min
Pharmacokinetic study; [10]
  AUC(0-inf) at 24 h: 279 ng·h/mL
  half-life at 24 h: 137 min
Pharmacokinetic study; male, Sprague-Dawley, plasma, rat, 20 mg/kg PO
  AUC(0-inf): 3910 ng·h/mL
[4]; rat brain homogenate
  recovery at 6 h, 5 μM: 102%
  remaining at 6 h, 5 μM: 94.7%
[4]; [11]
  fraction unbound at 6 h, 5 μM: 0.0447
  fraction unbound at 6 h, 5 µM: 0.045
[4]; [12]
  fraction unbound at 6 h, 5 μM: 0.0447
Plasma stability; Sprague-Dawley, rat, plasma
  remaining at 5 μM: > 90%
Plasma stability; 15 min
  Remaining Percentages: 96.53%
Plasma stability; 30 min
  Remaining Percentages: 95.56%
Plasma stability; 60 min
  Remaining Percentages: 99.37%
Plasma stability; 120 min
  Remaining Percentages: 96.60%
Plasma stability
  t1/2: ∞
[5]
  IC50: 3.1 nM
[6]; [13]
  fraction unbound at 6 h, 5 μM: 0.128
[6]; [14]
  recovery at 6 h, 5 μM: 106%
  remaining at 6 h, 5 μM: 99.6%
[6]; [15]
  fraction unbound at 6 h, 5 μM: 0.128
[6]; human, human plasma
  recovery at 6 h, 5 μM: 101%
  remaining at 6 h, 5 μM: 102%
[6]; [16]
  fraction unbound at 6 h, 5 μM: 0.0442
[6]; plasma, human, 5 μM, read-out: fu,plasma% / %Unbound
  fraction unbound at 6 h, 5 µM: 0.044
[6]; [17]
  fraction unbound at 6 h, 5 μM: 0.0442
[6]; rat, 5 μM
  fu,plasma% / %Unbound: 12.75%
EGFRwt
  Kd: < 0.2 nM
hERG; 1 μM
  %hERG inhibition: 17%
hERG
  IC50: 6.48 µM
[7]
  hepatocyte CLint at 2 h, 1 µM: 70 µL/min/1e6 cells
  half-life at 2 h, 1 µM: 19.7 min
[7]; 15 min
  Remaining Percentages: 47.58%
[7]; 30 min
  Remaining Percentages: 28.51%
[7]; 60 min
  Remaining Percentages: 11.71%
[7]; 90 min
  Remaining Percentages: 4.98%
[7]; 120 min
  Remaining Percentages: 2.53%

## COc1cc2ncnc(Nc3cccc(Cl)c3F)c2cc1OCCON1CCOCC1 [Compound 7, N-(3-Chloro-2-fluorophenyl)-7-methoxy-6-(2-(morpholinooxy)ethoxy)quinazolin-4-amine]
[1]
  half-life at 1 h, 1 µM: 10 min
  microsomal CLint at 1 h, 1 µM: 138 µL/min/mg
[1]; +Cofactors, 15 min
  Remaining Percentage: 28.79%
[1]; +Cofactors, 30 min
  Remaining Percentage: 12.97%
[1]; +Cofactors, 45 min
  Remaining Percentage: 8.49%
[1]; +Cofactors, 60 min
  Remaining Percentage: 5.84%
[1]; -Cofactors, 60 min
  Remaining Percentage: 118.60%
Caco-2 permeability; Caco-2
  efflux ratio at 2 h, 5 µM: 1
  Papp A→B at 2 h, 5 µM: 10.9 ×10⁻⁶ cm/s
  Papp A→B at 2 h, 5 μM: 10.9 ×10⁻⁶ cm/s
  Papp B→A at 2 h, 5 µM: 10.8 ×10⁻⁶ cm/s
  Papp B→A at 2 h, 5 μM: 10.8 ×10⁻⁶ cm/s
Caco-2 permeability; read-out: Recovery% (AP-BL)
  recovery at 2 h, 5 μM: 72.9%
Caco-2 permeability; read-out: Recovery% (BL-AP)
  recovery at 2 h, 5 μM: 72.2%
[2]; +Cofactors, 15 min
  Remaining Percentage: 43.79%
[2]; +Cofactors, 30 min
  Remaining Percentage: 21.93%
[2]; +Cofactors, 45 min
  Remaining Percentage: 10.84%
[2]; +Cofactors, 60 min
  Remaining Percentage: 7.20%
[2]; -Cofactors, 60 min
  Remaining Percentage: 87.34%
[2]
  half-life at 1 h, 1 µM: 14 min
  microsomal CLint at 1 h, 1 µM: 99 µL/min/mg
[3]
  IC50: 17 nM
Pharmacokinetic study; [10]
  AUC(0-inf) at 24 h: 89 ng·h/mL
  half-life at 24 h: 33.6 min
[4]; rat brain homogenate
  recovery at 6 h, 5 μM: 94.7%
  remaining at 6 h, 5 μM: 98.3%
[4]; [11]
  fraction unbound at 6 h, 5 μM: 0.0478
[4]; [12]
  fraction unbound at 6 h, 5 μM: 0.0478
Plasma stability; 15 min
  Remaining Percentages: 91.34%
Plasma stability; 30 min
  Remaining Percentages: 93.84%
Plasma stability; 60 min
  Remaining Percentages: 93.29%
Plasma stability; 120 min
  Remaining Percentages: 95.67%
Plasma stability
  t1/2: ∞
[5]
  IC50: 0.31 nM
[6]; [13]
  fraction unbound at 6 h, 5 μM: 0.105
[6]; [14]
  recovery at 6 h, 5 μM: 110%
  remaining at 6 h, 5 μM: 101%
[6]; [15]
  fraction unbound at 6 h, 5 μM: 0.105
[6]; human, human plasma
  recovery at 6 h, 5 μM: 98.9%
  remaining at 6 h, 5 μM: 99.4%
[6]; [16]
  fraction unbound at 6 h, 5 μM: 0.0412
[6]; [17]
  fraction unbound at 6 h, 5 μM: 0.0412
EGFRwt
  Kd: < 0.2 nM
hERG
  IC50: 8.48 ± 3.5 µM
[7]
  hepatocyte CLint at 2 h, 1 µM: 126 µL/min/1e6 cells
  half-life at 2 h, 1 µM: 11 min
[7]; 15 min
  Remaining Percentages: 38.18%
[7]; 30 min
  Remaining Percentages: 15.61%
[7]; 60 min
  Remaining Percentages: 2.48%
[7]; 90 min
  Remaining Percentages: 0.92%
[7]; 120 min
  Remaining Percentages: 0.74%
